The source of these data is PMC6630718, “Discovery of Novel UV-Filters with Favorable Safety Profiles in the 5-Arylideneimidazolidine-2,4-dione Derivatives Group” (Molecules, 2019).

In series [1] the test system is estrogen-dependent MCF-7 breast cancer cell line. Put plainly: Estrogenic activity: MCF-7 proliferation, crystal violet assay. The series is classed as cell-based, human. The following applies: 5 μM, 120 h, estrogen- and phenol red-free medium. Here is the method:
To determine estrogenic activity of tested compounds their influence on estrogen-dependent MCF-7 breast cancer cell line proliferation was investigated. Cells were seeded into 24-wells plates in density of 40,000 per well. After 24 h incubation, cells were washed twice with PBS and fresh, estrogen- and phenol red-free medium (DMEM low-glucose; 2,5% Charcoal Stripped FBS; 2 mM glutamine; Sigma Aldrich, Darmstadt, Germany) was added. […] After 120 h incubations, cells proliferation was determined with crystal violet assay. Briefly, cells were washed with PBS and fixed with 3,7% formaldehyde. Then, crystal violet solution was added for 10 minutes. After incubation, solution was removed and cells were washed five times with PBS. Crystal violate was extracted from cells using destaining solution (1,33% citric acid, 1,09% sodium citrate in water/methanol (1:1) solution) and absorbance of the solution was determined at 570 nm (A570). Proliferation rate was determined by dividing the A570 of experimental wells by the A570 of control wells × 100%.

The nature of series [2]: In vitro stability in mouse liver microsomes. The series is classed as in vitro ADME. Here is the method:
Mouse liver microsomes (MLMs) were used to investigate the phase I metabolism of selected compounds (2c, 2d, 3b, 4g, 5a) and the reference substance BP-2. Samples composed of test compound (20 µM), MLMs (0.8 mg/mL) and potassium phosphate buffer (100 mM, pH 7.4) were preincubated prior to addition of NADPH-regenerating system. NADPH-regenerating system contained NADP, glucose-6-phosphate, glucose-6-phosphate dehydrogenase and potassium phosphate buffer (100 mM, pH 7.4). Control incubations were performed in the absence of the NADPH-regenerating system and in case of esters (2c, 2d, 3b and 4g) without the mouse liver microsomes solution to determine spontaneous hydrolysis. Incubations were conducted at 37 °C for at least 15 min up to 60 min. The reactions were stopped by the addition of 250 μL ice-cold methanol containing internal standard PTX (20 μM). The mixture was then centrifuged. Supernatant analysis was performed using UPLC/MS (Waters Corporation). The assays were repeated two times. The in vitro half times (t1/2) for test compounds were determined from the slope of the linear regression of ln % parent compound remaining versus incubation time. The calculated t1/2 was incorporated into the following equation to obtain intrinsic clearance: (Clint) = (volume of incubation [µL]/ protein in the incubation [mg]) × 0.693 / t1/2 [74].

Series [3] in a line: In vitro photoprotection study of 2% (w/w) macrogol formulations on PMMA plates. The method, boiled down: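 Compounds at 2% in macrogol (PEG-400/PEG-1500) formulations, predissolved in triacetin:Tween 20 (1:9) or DMSO; 32.5 mg applied to 25 cm² PMMA plates (5 µm roughness), glycerin-treated plate as reference. Per EN ISO 24443:2012, modified: reflectance absorbance 290–400 nm in 1 nm steps, averaged over 12 scans.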

Series [4] can be described thus: Ultraviolet spectroscopy in methanol solutions. It is filed as physicochemical. The following applies: for Absorption Range: scan range 290–400 nm. The method in brief:
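Spectra recorded from 290–400 nm in methanol (50 or 25 μM) in 1 cm quartz cuvettes. εmax taken as the slope of absorbance vs. concentration over 10–50 μM or 2.5–30 μM.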

A short description of series [5]: Solubility in cosmetic solvents / macrogol formulations. It is filed as physicochemical. The following applies: typical cosmetic solvents / formulations used. The text has this:
The composition of formulations and concentration of tested compounds were based on their limited solubility. N-monosubstituted compounds 2a–2e were insoluble at desirable concentrations in the typical solvents used in cosmetic formulations such as alcohols, triacetin, surfactants, and co-surfactants. To dissolve compounds 2a and 2b before incorporation to the formulation DMSO: Tween 20 (1:9 w/w) was used, for less soluble 2c–2e it was necessary to use DMSO alone as solvent. […] Thus the detailed composition of the formulations is as follows: F1–Tween 20 43.2%, PEG-400 25%, PEG-1500 25%, Triacetin 4.8%, tested compound 2%; F2–Tween 20 43.2%, PEG-400 25%, PEG-1500 25%, DMSO 4.8%, tested compound 2%; F3–PEG-400 25%, PEG-1500 25%, DMSO 48%, tested compound 2%. Considering the disadvantages of currently reported macrogol formulations and the low concentration achieved for the tested compounds (2%), we plan to work on cosmetic emulsions containing the most promising derivatives at higher concentrations as well as required excipients including preservatives, antioxidants, etc. This research will be carried out in the near future.

The nature of series [6]: Photostability in macrogol formulations on PMMA plates (solar light simulator). It is filed as physicochemical. The method, boiled down: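 Macrogol formulations (2% w/w) applied at 1.3 mg/cm² on PMMA plates were irradiated 1 h at 500 W/m² (218 kJ/m² UV) in a solar simulator with <290 nm cut-off and IR block. SPFin vitro, UVA PF and AUC were compared before and after exposure, with methanol washes analysed by UPLC-MS/MS, in duplicate.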

Series [7] is described as follows: Photostability in methanol solutions (solar light simulator). As to conditions: methanol solution; for % of initial AUC post-irradiation / λmax post-irradiation: 1h irradiation at 500 W/m2. The series is classed as physicochemical. Details: λmax pre-irradiation: unit not given beside the values. The method in brief: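 Compounds at 25 or 50 µM in methanol, in stoppered quartz cuvettes, were irradiated 1 h at 500 W/m^2 (UV dose 218 kJ/m^2). A solar simulator filtered below 290 nm with an IR block was used. UV absorption spectra before and after irradiation were compared, with UPLC-MS/MS analysis, in duplicate.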

A short description of series [8]: Neurocytotoxicity, MTT assay. It is filed as cell-based. As to conditions: human, SH-SY5Y neuroblastoma cells, highest concentration (50 µM), read-out: cell viability (% of control). On the procedure: For […] assays a human neuroblastoma cell line—SH-SY5Y (CRL-2266™, ATCC) and a human hepatocellular carcinoma cell line–HepG2, respectively have been used. Cells were seeded on 96-well plates at an initial density of 10,000 cells per well. Cells were cultured in standard conditions for 24 h and then study compounds were administrated at different concentrations (10–50 μM) for another 24 h. After incubation time cells viability was measured with MTT assay. For this purpose culture medium has been replaced for the fresh one and MTT reagent (3-(4,5-dimethylthiazol-2-yl)-2,5-diphenyltetrazolium bromide) has been added at the concentration 0.5 mg/mL. Cells were incubated with MTT reagent at 37 °C for 4 h. Then formazan crystals have been dissolved in DMSO solution and the absorbance has been measured at 570 nm. Experiments were conducted in triplicates. Values represent mean percent of viability (in the percent of control).

A short description of series [9]: MTT cytotoxicity, skin panel model (melanocytes). The series is classed as cell-based. As to conditions: Primary Epidermal Melanocytes (PCS-200-013, ATCC), human primary dermal melanocytes, highest tested concentration (50 µM), read-out: cell viability (% of control).
Method: Primary Epidermal Melanocytes were cultured in Dermal Cell Basal Medium (ATCC) supplemented with Adult Melanocyte Growth Kit Components (ATCC), HaCaT and BJ cells were cultured in Dulbecco’s modified Eagle’s medium (DMEM; New York, NY, USA) and supplemented with 10% fetal bovine serum (FBS; Gibco, New York, NY, USA). Cell maintenance was performed in a humidified incubator at 37 °C with 5% CO2. Cells were passage when the culture has reached approximately 80 to 90% confluence. Cells were seeded at density of 6 × 10^3 on 96-well plates. Following overnight culture, the cells were then treated with increasing doses of compounds and incubated for 24 h. Following cell exposure to each drug for 24 h, 10 µL MTT reagent (Sigma Aldrich, Darmstadt, Germany) was added to each well. After 4 hours incubation (37 °C, 5% CO2), the medium was aspirated and the formazan produced in the cells appeared as dark crystals in the bottom of the wells. Next, DMSO (dissolving solution) was added to each wells. Then the optical density (OD) of solution was determined at 570 nm on micro plate reader (Spectra iD3 Max, Molecular Devices; San Jose, CA, USA). Viability (% of control) was determined by dividing A570 of experimental wells by of A570 of control wells × 100%.
[10] abbreviates: 2% (w/w) macrogol formulation F2 (DMSO 4.8%).
Setting [11] is: after 1 h irradiation at 500 W/m^2, formulation F2 (DMSO 4.8%).
The mark [12] stands for this setting: after 1 h irradiation at 500 W/m^2, formulation F3 (DMSO 48%).
The mark [13] stands for this setting: 2% (w/w) macrogol formulation F1 (Triacetin 4.8%).
Where [14] appears, read: after 1 h irradiation at 500 W/m^2, formulation F1.

Structures are written as SMILES.

For `O=C(c1ccc(O)cc1O)c1ccc(O)cc1O` [BP-2, benzophenone-2, reference compound], in series [1], the “stimulation of MCF-7 proliferation” value was “over 60%”. Besides, the “t ½” value in series [2] (mouse liver microsomes 0.8 mg/mL, 20 µM compound, NADPH-regenerating system, 37 °C) amounted to 1.1 h. For the same compound, the Clint in series [2] (mouse liver microsomes, calculated from t1/2) is 13 µL/min/mg.

As for `CCOC(=O)CN1C(=O)N/C(=C\c2ccccc2)C1=O` [Compound 2a, Ethyl (Z)-2-(4-benzylidene-2,5-dioxoimidazolidin-1-yl)acetate], the melting point lay in the range of 169 to 171 °C. Also, in [3] (setting [10]), the SPFin vitro was 4.79 ± 0.02, the “UVA PF” value stood at 2.40 ± 0.01, the “UVA/UVB Ratio” value is recorded as 0.35 ± 0.00 and the λc (critical wavelength) worked out at 339 nm. In series [4], the εmax was found to be 28460 M⁻¹ cm⁻¹, the λmax is 316 nm and the “Absorption Range” value is 290–345 nm. Besides, in [5], the “solubility (in words)” value is listed as “only slightly soluble”. Further, the “improvement of the functional photostability” value in series [6] (DMSO in formulation reduced from 48 to 4.8%) is listed as 31.1%. In [6] (setting [11]), the “% of Initial AUC” value is recorded as 62.42%, the “% of Initial SPFin vitro” value was 55.49% and the “% of Initial UVA PF” value is 68.96%. Also, in series [6] (setting [12]), the “% of Initial AUC” value was 46.72%, the “% of Initial SPFin vitro” value is reported as 33.25% and the “% of Initial UVA PF” value is on record as 37.87%. For the same compound, the “percentage of photoisomer formation” value in [6] (two formulations differing in the content of DMSO (48 and 4.8%), which value belongs to which is not given) is recorded as 48%. In addition, in series [7], the “decrease of AUC after irradiation” value is reported as about 30%, the “shift of λmax after irradiation” value was 1 nm, the λmax pre-irradiation was 316 and the “% of initial AUC post-irradiation” value was 70.45%. The same compound gave a λmax post-irradiation in series [7] of 317.

As to `Cc1ccc(/C=C2/C(=O)C3(C)CCC2C3(C)C)cc1` (stereo not shown) [Compound 4-MBC, 4-methylbenzylidene camphor, reference compound], the viability at 24 h, 50 µM in series [8] was under 31%. Also, in series [3] (setting [13]), the “UVA PF” value was determined as 1.08 ± 0.1, the “UVA/UVB Ratio” value is listed as 0.00 ± 0.00 and the λc (critical wavelength) worked out at 316 nm. Further, the SPFin vitro in series [3] (2% (w/w) macrogol formulation F1 (Tween 20, PEG-400, PEG-1500, Triacetin 4.8%)) stood at 5.59 ± 0.27. For the same compound, in [4], the εmax was 25550 M⁻¹ cm⁻¹, the λmax was 299 nm and the “Absorption Range” value was 290–332 nm. The viability at 24 h, 50 µM in series [9] is under 36%. Moreover, in [6] (setting [14]), the “% of Initial AUC” value is reported as 90.89%, the “% of Initial SPFin vitro” value is 91.05% and the “% of Initial UVA PF” value was 101.39%. In [7], the λmax pre-irradiation is 299, the “% of initial AUC post-irradiation” value is 87.76% and the λmax post-irradiation is listed as 303.
